Test results as given in ChEMBL document CHEMBL4257513 (Medchemcomm, 2018).
The source made the active and inactive calls. The rule behind the calls is not given here.

Assays:
[1] = target: T1, Tyrosinase (Agaricus bisporus) (UniProt O42713); experiment: Inhibition of mushroom tyrosinase at 100 uM using L-dopa as substrate preincubated for 10 mins followed by substrate addition and measured for 1 min by spectrophotometric method relative to control
T1 sequence (whole entry): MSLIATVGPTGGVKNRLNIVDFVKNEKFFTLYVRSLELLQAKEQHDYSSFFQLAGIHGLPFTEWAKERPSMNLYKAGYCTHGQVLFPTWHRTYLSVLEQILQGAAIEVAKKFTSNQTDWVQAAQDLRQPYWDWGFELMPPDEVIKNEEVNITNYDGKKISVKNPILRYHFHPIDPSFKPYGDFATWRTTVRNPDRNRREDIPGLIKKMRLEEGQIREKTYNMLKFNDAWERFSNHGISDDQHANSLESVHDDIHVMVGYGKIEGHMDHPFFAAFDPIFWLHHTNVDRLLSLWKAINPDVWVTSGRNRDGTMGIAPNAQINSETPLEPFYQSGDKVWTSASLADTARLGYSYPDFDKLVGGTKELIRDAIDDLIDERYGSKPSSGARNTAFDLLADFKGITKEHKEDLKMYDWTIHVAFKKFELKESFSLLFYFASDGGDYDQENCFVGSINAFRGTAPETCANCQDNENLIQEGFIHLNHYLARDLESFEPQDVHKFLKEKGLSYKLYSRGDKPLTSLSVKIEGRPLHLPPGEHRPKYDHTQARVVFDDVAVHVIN

Tyrosinase [2] = target: T2, Tyrosinase (Agaricus bisporus, UniProt O42713)
T2 sequence (O42713 whole entry): T1 sequence (whole entry)
Description: Inhibition of mushroom tyrosinase using L-dopa as substrate preincubated for 10 mins followed by substrate addition and measured for 1 min by spectrophotometric method

[3] = target: T1, Tyrosinase (Agaricus bisporus); experiment: Reversible inhibition of mushroom tyrosinase at 2 to 20 uM using L-dopa as substrate preincubated for 10 mins followed by substrate addition and measured for 1 min by spectrophotometric method
Tyrosinase [4] = target: T2, Tyrosinase; experiment: Mixed-type inhibition of mushroom tyrosinase using varying levels of L-dopa as substrate preincubated for 10 mins followed by substrate addition and measured for 1 min by Lineweaver-burk plot analysis
Tyrosinase [5] = target: T2, Tyrosinase; experiment: Mixed-type inhibition of mushroom tyrosinase assessed as inhibitory constant for enzyme-substrate complex using varying levels of L-dopa as substrate preincubated for 10 mins followed by substrate addition and measured for 1 min by Lineweaver-burk plot analysis
[6] = target: T1, Tyrosinase (Agaricus bisporus); experiment: Potency index, ratio of kojic acid IC50 to test compound IC50 for mushroom tyrosinase
[7] = target: T1, Tyrosinase (Agaricus bisporus); experiment: Reversible inhibition of mushroom tyrosinase up to 5 uM using L-dopa as substrate preincubated for 10 mins followed by substrate addition and measured for 1 min by spectrophotometric method
Tyrosinase [8] = target: T2, Tyrosinase; experiment: Noncompetitive inhibition of mushroom tyrosinase using varying levels of L-dopa as substrate preincubated for 10 mins followed by substrate addition and measured for 1 min by Lineweaver-burk plot analysis
Tyrosinase [9] = target: T2, Tyrosinase; experiment: Noncompetitive inhibition of mushroom tyrosinase assessed as inhibitory constant for enzyme-substrate complex using varying levels of L-dopa as substrate preincubated for 10 mins followed by substrate addition and measured for 1 min by Lineweaver-burk plot analysis
[10] = target: T1, Tyrosinase (Agaricus bisporus); experiment: Reversible inhibition of mushroom tyrosinase at 5 to 20 uM using L-dopa as substrate preincubated for 10 mins followed by substrate addition and measured for 1 min by spectrophotometric method

| SMILES | inhibition [1] [%] | IC50 (Tyrosinase [2]) [µM] | also measured |
| --- | --- | --- | --- |
| Cc1ccc(C(C)C)c(OC(=O)/C=C/c2ccc(Cl)cc2)c1 | < 40 | > 100 | – |
| COc1ccc(C(C)=O)c(OC(=O)/C=C/c2ccccc2)c1 | < 40 | > 100 | – |
| COc1cc(/C=C/C(=O)Oc2cc(C)ccc2C(C)C)ccc1O | < 40 | > 100 | – |
| COc1ccc(C(C)=O)c(OC(=O)/C=C/c2ccc(O)c(OC)c2)c1 | < 40 | > 100 | – |
| Cc1ccc(/C=C/C(=O)Oc2cc(C)ccc2C(C)C)cc1 | < 40 | > 100 | – |
| Cc1ccc(C(C)C)c(OC(=O)/C=C/c2ccc(F)cc2)c1 | < 40 | > 100 | – |
| Cc1ccc(C(C)C)c(OC(=O)/C=C/c2ccccc2)c1 | < 40 | > 100 | – |
| O=C(O)/C=C/c1ccc(O)cc1 [COUMARIC ACID] | – | 4710 | – |
| COc1ccc(/C=C/C(=O)Oc2cc(C)ccc2C(C)C)cc1 | < 40 | > 100 | – |

Further lines, with some results ahead:

| inhibition [1] [%] | IC50 (Tyrosinase [2]) [µM] | SMILES | also measured |
| --- | --- | --- | --- |
| > 40 | 77.4 | COc1ccc(/C=C/C(=O)Oc2cc(OC)ccc2C(C)=O)cc1 | – |
| > 40 | 8.3 | COc1ccc(C(C)=O)c(OC(=O)/C=C/c2ccc(F)cc2)c1 | inhibition [3]: Active; Ki (Tyrosinase [4]): 10 µM; Ki (Tyrosinase [5]): 35.6 µM |
| > 40 | 39 | COc1ccc(C(C)=O)c(OC(=O)/C=C/c2ccc(C)cc2)c1 | – |
| – | 121 | COc1ccc(C(C)=O)c(O)c1 [PAEONOL] | – |
| > 40 | 2 | COc1ccc(C(C)=O)c(OC(=O)/C=C/c2ccc(O)cc2)c1 | Ratio IC50 [6]: 16; inhibition [7]: Active; Ki (Tyrosinase [8]): 3.8 µM; Ki (Tyrosinase [9]): 3.8 µM |
| > 40 | 164 | COc1ccc(C(C)=O)c(OC(=O)/C=C/c2ccc(Cl)cc2)c1 | – |
| > 40 | 10.6 | Cc1ccc(C(C)C)c(OC(=O)/C=C/c2ccc(O)cc2)c1 | Ratio IC50 [6]: 3; inhibition [10]: Active; Ki (Tyrosinase [4]): 8 µM; Ki (Tyrosinase [5]): 72.2 µM |
